Test results reported in PMC10879537 (Nature Communications, 2024).
Values joined by “and” are separate entries in the source; they are usually repeats but may differ in a detail not shown here. Equal entries are not always repeated. Where two headings read alike, the source gives them in different places.

Legend:
[1] = test system: SADS-CoV strain CN/GDWT/2017; assay: cells; format: cell-based, swine acute diarrhoea syndrome coronavirus (SADS-CoV)
[2] = in vitro; conditions: African green monkey
[3] = in vitro; conditions: human
[4] = test system: SARS-CoV pseudotyped virus; assay: microbe, parasite or virus in culture; format: cell-based; conditions: for EC50: read-out: EC50 against SARS-CoV pseudotyped virus
[5] = test system: GX_P2V; assay: microbe, parasite or virus in culture; format: cell-based, Guangxi pangolin-CoV (GX_P2V); conditions: for inhibition at 0.79588 µM / inhibition at 1.09691 µM / inhibition at 1.39794 µM / inhibition at 1.69897 µM / inhibition at 0.193125 µM / inhibition at 0.39 µM / inhibition at 0.49485 µM / inhibition at 0.78 µM: Vero C1008, 48 h, read-out: Percentage of Inhibition (%)
[6] = test system: SARS-CoV-2 trVLP; assay: microbe, parasite or virus in culture
[7] = test system: SARS-CoV-2 pseudotyped virus; assay: microbe, parasite or virus in culture; format: cell-based
[8] = test system: MERS-CoV pseudotyped virus; assay: microbe, parasite or virus in culture; format: cell-based
[9] = test system: PEDV strain CV777; assay: microbe, parasite or virus in culture; format: cell-based, porcine epidemic diarrhea virus (PEDV)
[10] = test system: GX_P2V; assay: organism not typed; format: cell-based, Guangxi pangolin-CoV (GX_P2V)
[11] = in vitro; conditions: human, Caco-2
[12] = test system: SARS-CoV-2 trVLP; format: cell-based
[13] = test system: SARS-CoV-2 live virus (SARS-CoV-2/WH-09/human/2020/CHN); assay: microbe, parasite or virus in culture; format: cell-based
[14] = test system: SARS-CoV-2 trVLP
[15] = test system: Huh 7 cells
[16] = Huh-7, read-out: EC50 against SADS-CoV
[17] = CC50, cytotoxicity to Huh 7 cells (Fig. 4B, SADS-CoV panel)
[18] = Severe acute respiratory syndrome coronavirus
[19] = Vero C1008, read-out: EC50 GX_P2V
[20] = Severe acute respiratory syndrome coronavirus 2, read-out: EC50 SARS-CoV-2 trVLP
[21] = Severe acute respiratory syndrome coronavirus 2, 24 h, read-out: EC50 against SARS-CoV-2 pseudotyped virus
[22] = Middle East respiratory syndrome-related coronavirus, Huh-7, read-out: EC50 against MERS-CoV pseudotyped virus
[23] = Porcine epidemic diarrhea virus, Huh-7, read-out: EC50 against PEDV
[24] = Severe acute respiratory syndrome coronavirus 2, Vero C1008, read-out: SARS-CoV-2 (Vero E6) EC50
[25] = Severe acute respiratory syndrome coronavirus 2, Vero C1008, read-out: EC50 against diverse SARS-CoV-2-related viruses (summary statement)
[26] = Vero C1008, read-out: EC50 against GX_P2V
[27] = Severe acute respiratory syndrome coronavirus 2, read-out: EC50 SARS-CoV-2pseudotypedvirus

Compound | EC50 [1, 16] [nM] | CC50 at 48 h [2] [µM] | CC50 [3, 17] [µM] | EC50 [4, 18] [nM] | inhibition at 0.79588 µM [5] [%] | inhibition at 1.09691 µM [5] [%] | inhibition at 1.39794 µM [5] [%] | EC50 [6, 20] [nM] | EC50 [8, 22] [nM] | EC50 [9, 23] [nM] | Time of addition of anti-GX_P2V activity, Entry [10] | Time of addition of anti-GX_P2V activity, Full-time [10] | Time of addition of anti-GX_P2V activity, Post-entry [10] | CC50 at 48 h [11] [µM] | Time of addition of anti-SARS-CoV-2 trVLPs activity, Entry [12] | Time of addition of anti-SARS-CoV-2 trVLPs activity, Full-time [12] | Time of addition of anti-SARS-CoV-2 trVLPs activity, Post-entry [12] | EC50 [13, 24] [µM] | SI (SARS-CoV-2 trVLP, Caco 2-N) [14] | CC50 [3] [µM] | further results
COc1cc2c3cc1Oc1c(OC)c(OC)cc4c1[C@@H](Cc1ccc(O)c(c1)Oc1ccc(cc1)C[C@@H]3N(C)CC2)N(C)CC4 [Berbamine, berbamine] | 5840 | > 50 | > 25 | 5550 | 33.8 | 96.4 | 100 | 8150 | 3370 | 500 | 53.007 and 53.569 and 52.218 | 99.845 and 99.848 and 99.866 | 93.479 and 93.373 and 93.128 | > 50 | 49.832 and 46.966 and 50.173 | 90.853 and 91.022 and 89.926 | 85.087 and 83.404 and 83.155 | 19.9 | > 6.13 |  | EC50 ([1]; Huh-7, read-out: EC50 SADS): 3330 nM; CC50 at 48 h [3]: > 25 µM; inhibition at 1.69897 µM [5]: 100%; EC50 [5, 19]: 6.92 µM; EC50 [7, 21]: 1870 nM
COc1ccc2cc1Oc1ccc(cc1)C[C@H]1c3c(cc4c(c3Oc3cc5c(cc3OC)CCN(C)[C@@H]5C2)OCO4)CCN1C [Cepharanthine, reference compound] | 1030 | > 12.5 | > 12.5 | 1370 | 96.7 | 100 |  | 1600 | 2190 | 200 | 88.370 and 86.873 and 86.696 | 99.145 and 99.093 and 99.139 | 88.656 and 88.646 and 88.662 | > 50 | 63.189 and 64.430 and 67.089 | 95.064 and 95.621 and 95.146 | 74.095 and 72.335 and 71.421 | 2.19 | > 31.25 | 11 | EC50 ([1]; Huh-7, read-out: EC50 SADS): 400 nM; Percentage of Inhibition (%) [4]: 99.382% and 89.647%; EC50 [5, 25]: < 2 µM; inhibition at 0.193125 µM [5]: 46.4%; inhibition at 0.39 µM [5]: 20.4%; inhibition at 0.49485 µM [5]: 77.8%; EC50 [5, 26]: 1.78 µM; EC50 [7, 21]: 740 nM; Percentage of Inhibition (%) [8]: 24.735%; Percentage of Inhibition (%) [9]: 99.988%
COc1cc2c(cc1O)[C@@H](Cc1ccc(O)c(Oc3ccc(C[C@@H]4c5cc(OC)c(OC)cc5CCN4C)cc3)c1)N(C)CC2 [Daurisoline, daurisoline] | 2800 | > 50 |  | 2760 |  |  | 100 |  | 2460 | 820 | 73.500 and 68.250 and 70.810 | 99.980 | 90.220 and 88.260 and 87.780 | > 50 | 21.082 and 20.351 and 25.494 | 69.364 and 69.350 and 65.328 | 59.015 and 61.872 and 61.323 | 12.5 | > 35.21 | > 12.5 | inhibition at 0.193125 µM [5]: 6.47%; inhibition at 0.78 µM [5]: 63%; inhibition at 1.69897 µM [5]: 100%; EC50 [5, 26]: ~14.1 µM; EC50 ([5]; Vero C1008, read-out: EC50 against GX_P2V, repeated experiment): 10.6 µM; EC50 ([6]; Severe acute respiratory syndrome coronavirus 2, read-out: EC50 against SARS-CoV-2 trVLP): 1420 nM; EC50 [7, 27]: 8480 nM; inhibition at 6.25 µM ([10]; Vero C1008, read-out: Inhibition against GX_P2V, full-time treatment): ~100%
COc1ccc2cc1Oc1ccc(cc1)C[C@H]1c3cc(c(OC)cc3CCN1C)Oc1c(O)c(OC)cc3c1[C@H](C2)N(C)CC3 [Fangchinoline, fangchinoline] | 2230 | > 12.5 | > 12.5 | 1730 | 95.4 | 100 |  | 1930 | 4470 | 200 | 98.527 and 98.293 and 98.495 | 99.636 and 99.587 and 99.561 | 96.715 and 95.065 and 93.301 | 46.4 | 64.788 and 62.324 and 70.383 | 98.422 and 98.513 and 99.025 | 80.036 and 76.348 and 75.577 | 5.01 | 24.05 | 12.3 | EC50 [5, 25]: < 2 µM; inhibition at 0.39 µM [5]: 21%; inhibition at 0.49485 µM [5]: 97.5%; inhibition at 0.78 µM [5]: 14%; EC50 [5, 19]: 1.97 µM; Percentage of Inhibition (%), SARS-CoV-2 pseudotyped virus [7]: 100%; EC50 [7, 21]: 1160 nM; Percentage of Inhibition (%) [14]: 100%
COc1ccc2cc1Oc1ccc(cc1)C[C@H]1c3cc(c(OC)cc3CCN1C)Oc1c(OC)c(OC)cc3c1[C@H](C2)N(C)CC3 [Tetrandrine, reference compound] | 2190 | 21.9 | > 12.5 | 3040 | 70.2 | 100 | 100 | 2800 | 2170 | 440 | 99.931 and 99.920 | 99.968 and 99.974 and 99.976 | 99.868 and 99.847 and 99.852 | > 50 | 36.455 and 44.889 and 48.206 | 99.957 and 99.767 and 99.878 | 89.364 and 97.266 and 89.859 | 3.13 | > 17.86 | 11.7 | CC50 [2]: 21.9 µM; Percentage of Inhibition (%) [4]: 99.687%; inhibition at 0.49485 µM [5]: 11.3%; inhibition at 1.69897 µM [5]: 100%; EC50 [5, 19]: 5.21 µM; EC50 [7, 27]: 3200 nM; Percentage of Inhibition (%) [8]: 99.674% and 99.511%
cycleanine |  |  |  |  |  |  |  |  |  |  | 60.950 and 60.215 and 58.803 | 92.758 and 93.389 and 93.191 | 62.451 and 61.926 and 63.133 |  | 37.174 and 37.913 and 46.924 | 60.248 and 61.546 and 62.312 | 56.735 and 54.305 and 57.336 |  | > 32.68 |  | EC50 ([1]; read-out: EC50 against SADS-CoV): 2770 nM; EC50 [4]: 3200 nM; CC50 [15]: > 12.5 µM; Percentage of Inhibition (%) [5]: 100%; EC50 ([5]; read-out: EC50 against GX_P2V): 1.49 µM; EC50 ([7]; read-out: EC50 SARS-CoV-2pseudotypedvirus): 6540 nM; EC50 ([8]; read-out: EC50 against MERS-CoV pseudotyped virus): 2450 nM; EC50 ([9]; read-out: EC50 against PEDV): 340 nM; EC50 ([13]; read-out: SARS-CoV-2 (Vero E6) EC50): 8.91 µM; EC50 ([14]; read-out: EC50 SARS-CoV-2 trVLP): 1530 nM
